In patent publication US20220064291A1, “METHODS OF USING BUTYROPHILIN ANTIBODIES FOR TREATING HIV INFECTION” (Merck Sharp & Dohme Corp., priority 2018, published 2022):

Assays:
human CD4+ T cells = assay: Inhibition of anti-CD3 (TCR)-mediated T cell activation by recombinant butyrophilin-Fc proteins, bead- and plate-based assays; conditions: anti-CD3 stimulation, FIG. 3
Method: To characterize the role of butyrophilins in regulating T cell responses, T cell assays were performed using recombinant human butyrophilin-Fc proteins. Specifically, we assessed the role of butyrophilins in inhibiting T cell receptor (TCR)-mediated T cell activation by anti-CD3 antibody (clone OKT3). Experiments were performed in bead- and plate-based formats.
Briefly, PBMCs were isolated from healthy human donors (Biological Specialty Corporation, Colmar, Pa.). To generate T cell blasts, PBMCs were treated with IL-2 (4u/ml) and PHA (1 μg/ml) in RPMI media containing 10% Fetal bovine serum (Gibco, Gaithersburg, Md.), penicillin (100U/ml)/streptomycin (0.1 mg/ml) (Gibco, Gaithersburg, Md.), and L-Glutamine (2 mM) (Gibco, Gaithersburg, Md.) at 37° C. in a CO2 incubator for 7 days. Fresh media was added once every 3 days. […]
4. […] T cell activation was measured based on IFNγ expression using a V-PLEX proinflammatory panel 1 human assay (Meso Scale Discovery, Rockville, Md.) (FIG. 3A-C).
Sterile 96-well flat bottom tissue culture plates (Corning) were coated with 1 μg/ml of anti-CD3 antibody (Clone OKT3, BD Pharmingen) in PBS+/− the following Fc-fusion proteins: BTN2A2-Fc, BTN3A1-Fc, or human IgG Fc. […] T cell activation was measured based on IFNγ expression using a V-PLEX proinflammatory panel 1 human assay (Meso Scale Discovery, Rockville, Md.) (FIG. 3D).

[1] = system: HIV latent primary CD4+ T cells; assay: Competition with recombinant BTN-Fc proteins against anti-BTN3A 20.1-mediated virus reactivation; type: cell-based, human; conditions: recombinant Fc proteins 0.03-10 μg/ml; 24 h; FIG. 6
Method: To confirm the specificity of anti-BTN3A antibody-mediated activity on latent virus activity and T cell activation, we performed competition experiments using recombinant BTN proteins. Briefly, 96-well flat bottom tissue culture plates (Corning) were coated with anti-CD3 (1 μg/ml) and anti-BTN3A 20.1 antibody (5 μg/ml) in PBS for 16 h in a 4° C. refrigerator. The next day, antibodies were aspirated using a multichannel pipette and various concentrations of recombinant BTN-Fc proteins BTN3A1-Fc and BTN3A2-Fc (10 μg/ml, 3 μg/ml, 1 μg/ml, 0.3 μg/ml, 0.1 μg/ml, and 0.03 μg/ml) were added to antibody coated plates in 2% FBS (in PBS). BTN2A2-Fc and human IgG Fc were used as controls. After 30 min incubation at RT recombinant Fc proteins were aspirated using a multichannel pipette. Next, HIV latent primary CD4+ T cells from two donors were added to the antibody coated plates in duplicates at 125,000 cells/well in 200 ul of primary cell media (RPMI with 10% FBS, 50 μg/ml Primocin™). At 24h post treatment virus reactivation was measured using a Nano-Glo® Luciferase Assay (Promega) (FIG. 6).

Substance: BTN3A1-Fc: recombinant human butyrophilin-Fc fusion protein, R&D systems
- activation of human CD4+ T cells (IFNγ production, T cell proliferation, IL-2 production) (human CD4+ T cells): block activation
- inhibition of anti-BTN3 20.1 Ab-mediated latent HIV activation and T cell activation [1]: dose-dependent inhibition
